Activity calls are given as the source filed them.
Assays:
Aminopeptidase N = target: T1, Aminopeptidase N (Plasmodium falciparum FcB1/Columbia, UniProt O96935); test: malaria alanyl aminopeptidase activity blockers – biochemical, fluorogenic H-Leu-NHMec substrate, 1536-well (AID 1445); design: species or system Plasmodium falciparum 3D7, 3D7
T1 sequence (O96935 whole entry): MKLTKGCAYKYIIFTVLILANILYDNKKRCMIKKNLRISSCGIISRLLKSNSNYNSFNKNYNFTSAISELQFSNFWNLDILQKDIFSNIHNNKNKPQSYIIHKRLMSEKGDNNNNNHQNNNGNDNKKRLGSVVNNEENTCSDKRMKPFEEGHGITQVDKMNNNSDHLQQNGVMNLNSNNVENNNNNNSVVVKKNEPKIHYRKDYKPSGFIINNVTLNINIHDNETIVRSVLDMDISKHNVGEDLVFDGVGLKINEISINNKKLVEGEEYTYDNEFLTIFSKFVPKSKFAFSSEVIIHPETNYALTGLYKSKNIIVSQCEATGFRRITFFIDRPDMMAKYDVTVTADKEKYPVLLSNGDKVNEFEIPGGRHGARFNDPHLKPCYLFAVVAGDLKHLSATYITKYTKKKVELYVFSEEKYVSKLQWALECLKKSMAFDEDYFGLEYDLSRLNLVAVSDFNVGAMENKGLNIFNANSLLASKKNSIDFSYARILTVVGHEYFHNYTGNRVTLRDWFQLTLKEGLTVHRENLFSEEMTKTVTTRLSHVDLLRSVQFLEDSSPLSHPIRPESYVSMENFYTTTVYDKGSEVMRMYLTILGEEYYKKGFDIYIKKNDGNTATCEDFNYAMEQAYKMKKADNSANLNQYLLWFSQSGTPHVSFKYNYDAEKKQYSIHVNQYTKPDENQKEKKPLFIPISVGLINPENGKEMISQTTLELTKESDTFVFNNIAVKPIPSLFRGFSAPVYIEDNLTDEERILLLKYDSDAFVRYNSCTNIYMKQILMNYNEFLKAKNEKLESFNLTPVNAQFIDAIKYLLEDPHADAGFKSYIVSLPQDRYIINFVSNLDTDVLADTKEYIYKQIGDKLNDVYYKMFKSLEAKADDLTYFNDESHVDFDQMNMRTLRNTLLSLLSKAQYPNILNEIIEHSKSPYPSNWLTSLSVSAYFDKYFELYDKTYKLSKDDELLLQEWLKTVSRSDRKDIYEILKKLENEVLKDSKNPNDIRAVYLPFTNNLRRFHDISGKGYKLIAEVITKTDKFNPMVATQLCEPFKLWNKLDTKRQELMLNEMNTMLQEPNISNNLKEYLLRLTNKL

[1] = target: T2, Tyrosyl-DNA phosphodiesterase 2 (Homo sapiens, UniProt O95551); test: potency against TDP2 phosphodiesterase activity – biochemical, epi absorbance, IC50, dose response (AID 743297)
T2 sequence (O95551 whole entry): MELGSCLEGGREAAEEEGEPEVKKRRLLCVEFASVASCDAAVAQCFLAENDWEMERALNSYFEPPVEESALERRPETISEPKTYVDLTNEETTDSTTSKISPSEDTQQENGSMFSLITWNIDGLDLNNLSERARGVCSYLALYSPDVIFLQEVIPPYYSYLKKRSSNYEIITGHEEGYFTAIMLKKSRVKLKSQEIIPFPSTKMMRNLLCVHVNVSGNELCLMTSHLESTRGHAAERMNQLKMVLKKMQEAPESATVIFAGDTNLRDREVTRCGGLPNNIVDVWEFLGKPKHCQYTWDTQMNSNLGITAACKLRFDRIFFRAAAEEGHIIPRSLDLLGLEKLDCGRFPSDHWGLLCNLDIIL

[2] = target: T3, Oxysterols receptor LXR-beta (Homo sapiens, UniProt P55055); assay type: functional, cell-based;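 note: agonist activity at LXR measured by a cell-based luminescence readout across a dose range, run as a counterscreen for daf-12 agonists; HEK293 cells with Gal4-LXR fusion and GAL4-driven luciferase reporter; potency for activation of Gal4-LXR reporter so compounds are agonists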
T3 sequence (P55055 whole entry): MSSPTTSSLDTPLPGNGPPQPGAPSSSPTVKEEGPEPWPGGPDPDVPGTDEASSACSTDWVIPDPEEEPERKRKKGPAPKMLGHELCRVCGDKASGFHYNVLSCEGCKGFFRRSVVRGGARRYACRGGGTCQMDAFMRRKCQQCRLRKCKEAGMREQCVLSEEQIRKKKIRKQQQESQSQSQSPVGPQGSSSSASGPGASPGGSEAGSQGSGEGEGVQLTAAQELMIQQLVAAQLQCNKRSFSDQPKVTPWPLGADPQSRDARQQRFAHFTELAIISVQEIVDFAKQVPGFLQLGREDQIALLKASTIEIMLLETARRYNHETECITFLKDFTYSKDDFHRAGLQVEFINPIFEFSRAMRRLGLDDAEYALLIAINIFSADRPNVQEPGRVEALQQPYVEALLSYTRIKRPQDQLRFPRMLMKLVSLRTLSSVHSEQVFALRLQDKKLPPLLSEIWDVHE

H9c2 = test: cells; assay type: functional, cell-based; conditions: Rattus norvegicus, H9c2, Myocardium;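 note: confirmatory concentration-response retest of ultra-high-throughput screening hits for modulation of myocardial damage; cell death induced by hydrogen peroxide oxidative stress; compound pretreatment for 60 min then peroxide exposure for 2 h; potency is for protecting the cells against peroxide damage rather than for killing them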
[3] = reduction of Shn3 3'UTR-driven luciferase in osteoblasts – cell-based, Clone20 osteoblasts, firefly luciferase, cherry-picked, dose response (AID 624132); assay type: functional;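 note: firefly luciferase luminescence from reporter carrying the Shn3 3'UTR in osteoblasts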
[4] = loss of viability in HepG2 cells – cell-based, CellTiter-Glo, cherry-picked, cytotoxicity control for Shn3 inhibitor project, dose response (AID 624134); assay type: functional
[5] = target: Disintegrin and metalloproteinase domain-containing protein 17 (Homo sapiens, UniProt P78536); test: exosite inhibitors of ADAM17, dose response, biochemical (AID 743260)
Disintegrin and metalloproteinase domain-containing protein 17, sequence (P78536 whole entry, the tested form may be a part): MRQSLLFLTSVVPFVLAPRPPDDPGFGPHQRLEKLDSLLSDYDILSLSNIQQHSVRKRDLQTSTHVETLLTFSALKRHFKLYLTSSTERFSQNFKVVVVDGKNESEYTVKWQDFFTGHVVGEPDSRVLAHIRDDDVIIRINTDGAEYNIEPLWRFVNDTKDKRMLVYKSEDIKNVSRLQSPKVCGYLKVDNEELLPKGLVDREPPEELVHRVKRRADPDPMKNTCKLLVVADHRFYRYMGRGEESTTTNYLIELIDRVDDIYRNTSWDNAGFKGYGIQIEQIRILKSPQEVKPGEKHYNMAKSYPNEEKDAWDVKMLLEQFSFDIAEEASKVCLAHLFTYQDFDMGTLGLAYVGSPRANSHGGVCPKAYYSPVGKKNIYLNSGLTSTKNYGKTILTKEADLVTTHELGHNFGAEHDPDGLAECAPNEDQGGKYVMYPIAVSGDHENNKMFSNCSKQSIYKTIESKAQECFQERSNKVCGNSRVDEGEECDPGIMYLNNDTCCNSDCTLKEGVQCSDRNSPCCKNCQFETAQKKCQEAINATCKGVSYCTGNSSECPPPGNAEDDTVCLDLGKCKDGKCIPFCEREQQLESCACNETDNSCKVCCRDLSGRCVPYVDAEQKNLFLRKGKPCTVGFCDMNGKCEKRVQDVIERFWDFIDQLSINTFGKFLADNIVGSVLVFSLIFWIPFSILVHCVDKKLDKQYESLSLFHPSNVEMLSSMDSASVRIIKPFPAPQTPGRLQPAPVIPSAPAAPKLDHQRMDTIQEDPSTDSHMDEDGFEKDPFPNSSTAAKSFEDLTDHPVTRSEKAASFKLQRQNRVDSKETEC

[6] = inhibition of ADAM10 peptide cleavage – biochemical, FRET peptide substrate, recombinant human ADAM10, selectivity assay for ADAM17 exosite inhibitor project, dose response (AID 743259);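 note: ADAM10 enzyme cleaving a FRET peptide substrate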
[7] = blockers of HIV-1 envelope-mediated cell-cell fusion – cherry-pick, dose response (AID 652057); assay type: functional, cell-based
[8] = viability loss in CEM21 cells – cell-based, CellTiter-Glo luminescence, cherry-picked, cytotoxicity control for viral fusion inhibitor project, dose response (AID 652042); assay type: functional;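 note: potency for signal decrease meaning cytotoxicity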
[9] = blockers of HIV-1 ZM109 envelope-driven cell-cell fusion – HeLa effector, CEM target cells, luciferase, cherry-pick, dose response (AID 652058); assay type: functional, cell-based;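 note: luciferase signal from HIV-1 Env mediated cell-cell fusion of effector and target cells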
[10] = off-target signal loss in HeLa-CEM21 co-culture – HeLa F-luc CTL cells, cherry-picked, counter-screen for HIV-1 Env fusion inhibitor project, dose response (AID 652040); assay type: functional, cell-based;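 note: potency for signal decrease marking cytotoxic or nonspecific inhibition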
[11] = HIV-1 AD8 envelope cell-cell fusion blockers – cherry-pick, dose response (AID 652062); assay type: functional, cell-based;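 note: luciferase signal from cell-cell fusion driven by HIV-1 clade B AD8 Env; potency is for inhibitors of fusion seen as a drop in luminescence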
BJ [12] = test: BJ-TERT fibroblast viability loss – cell-based, RAS-independent, luminescence, dose response (AID 1933); assay type: functional; conditions: Homo sapiens
BJ [13] = test: cells; assay type: functional, cell-based; conditions: Homo sapiens
[14] = target: Luciferin 4-monooxygenase (Photinus pyralis, UniProt P08659); test: inhibition of purified Photinus pyralis luciferase – biochemical, luminescence, dose response (AID 1891)
Luciferin 4-monooxygenase, sequence (P08659 whole entry): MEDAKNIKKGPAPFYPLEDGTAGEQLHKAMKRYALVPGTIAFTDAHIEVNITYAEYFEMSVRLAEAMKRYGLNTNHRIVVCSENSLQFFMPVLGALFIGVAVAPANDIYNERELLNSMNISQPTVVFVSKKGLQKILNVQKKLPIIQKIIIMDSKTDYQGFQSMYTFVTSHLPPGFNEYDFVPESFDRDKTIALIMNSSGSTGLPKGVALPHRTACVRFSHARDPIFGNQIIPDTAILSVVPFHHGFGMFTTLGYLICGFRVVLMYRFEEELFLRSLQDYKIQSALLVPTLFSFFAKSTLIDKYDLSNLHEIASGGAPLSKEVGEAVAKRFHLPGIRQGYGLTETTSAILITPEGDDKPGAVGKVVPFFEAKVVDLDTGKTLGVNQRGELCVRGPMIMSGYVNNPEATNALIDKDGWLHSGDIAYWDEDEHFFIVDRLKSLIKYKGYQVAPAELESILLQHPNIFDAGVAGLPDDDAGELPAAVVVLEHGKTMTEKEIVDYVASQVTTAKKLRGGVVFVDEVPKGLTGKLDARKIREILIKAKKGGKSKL

[15] = Luminescence Cell-Based Dose Confirmation HTS to Identify Inhibitors of Platelet Dense Granule Release. [Related pubchem assays: 1663 (Primary HTS), 1678 (Summary of Project)]; assay type: functional
BJ [16] = test: BJ-TERT-LT-ST fibroblast viability loss – cell-based, RAS-independent, luminescence, dose response (AID 1935); assay type: functional; conditions: Homo sapiens;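 note: BJ fibroblasts immortalized with TERT plus LT and ST oncogenes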
[17] = DRD fibroblast viability loss – cell-based, non-viral oncogenic, luminescence, dose response (AID 1934); assay type: functional; conditions: Homo sapiens
[18] = A549 cell cytotoxicity, dose response, cytotoxicity control, plate reader, cherry-pick, antagonist series (AID 743412); assay type: functional, cell-based
[19] = toxicity toward HepG2 liver cells – cell-based, plate reader, cherry-pick, antagonist series, cytotoxicity control, dose response (AID 743416); assay type: functional
[20] = blockers of bursicon-stimulated LGR2 cAMP reporter – cell-based, HEK293, CRE-luciferase reporter, cherry pick, set 2, dose response (AID 743343); assay type: functional;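 note: transfected cells were stimulated with diluted bursicon conditioned medium after compound addition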
[21] = blockade of melanocortin 4 receptor signaling – cell-based, plate reader, cherry pick, counter-screen for LGR2 antagonist project, dose response (AID 743444); assay type: functional;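 note: transfected HEK 293 cells stimulated with alpha-MSH peptide; potency of inhibitors of the alpha-MSH evoked signal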
[22] = viability loss in HEK293 cells – cell-based, plate reader, cherry-picked samples, cytotoxicity control, dose response (AID 743446); assay type: functional

Question: Which results are given for `CCCCn1c(NS(=O)(=O)c2ccccc2)c(C(=O)OCC)c2nc3ccccc3nc21`?
Answer: IC50 (Aminopeptidase N): 74.4 µM (active); IC50 [1]: > 128 µM (inactive)

Question: With `Cc1nc2sc(-c3ccccc3)nn2c(=O)c1Br` as the molecule, how does the EC50 [2] read?
Answer: Its EC50 is > 67.5 µM (inactive).

Question: Which IC50 (H9c2) does the source give for `COc1ccc(OC)c(NC(=O)COC(=O)c2c3c(nc4ccccc24)CCCC3)c1` here?
Answer: Its IC50 is > 79 µM (inactive).

Question: And the AC50 [3]?
Answer: The AC50 was 8.67 µM (active).

Question: And the AC50 [4]?
Answer: The AC50 was > 70 µM (inactive).

Question: And the IC50 [5]?
Answer: The IC50 was > 69.5 µM (inactive).

Question: And the IC50 [6]?
Answer: The IC50 was > 69.5 µM (inactive).

Question: For `CC(C)Oc1cc(O)c2c(=O)c(-c3ccc(O)cc3)coc2c1`, which EC50 [2] is on record?
Answer: Its EC50 is > 67.6 µM (inactive).

Question: Which AC50 [7] does the source give for `Cc1cc(OCC(O)CNC(C)c2ccccc2)ccc1C(C)C` (stereo not given) here?
Answer: Its AC50 is 2.75 µM (active).

Question: What about the AC50 [8] of the same molecule?
Answer: The AC50 was 13.3 µM (active).

Question: And the AC50 [9]?
Answer: Its AC50 is 1.85 µM (active).

Question: And the AC50 [10]?
Answer: The AC50 was 3.99 µM (active).

Question: What about the AC50 [11] of the same molecule?
Answer: Its AC50 is 7.78 µM (active).

Question: With `COc1ccc(-c2ccc(SC)nn2)cc1` as the molecule, how does the EC50 (BJ [12]) read?
Answer: The EC50 was 6.75 µM (active).

Question: And the EC50 (BJ [13])?
Answer: Its EC50 is 6.55 µM (active).

Question: What about the EC50 [14] of the same molecule?
Answer: Its EC50 is 1.1 µM (active).

Question: What about the EC50 [15] of the same molecule?
Answer: The EC50 was 1.98 µM (active).

Question: And the EC50 (BJ [16])?
Answer: Its EC50 is 15.7 µM (active).

Question: What about the EC50 [17] of the same molecule?
Answer: The EC50 was 6.25 µM (active).

Question: What about the AC50 [18] of the same molecule?
Answer: The AC50 was 14.4 µM (active).

Question: And the AC50 [19]?
Answer: The AC50 was 8.69 µM (active).

Question: What about the AC50 [20] of the same molecule?
Answer: Its AC50 is 5.07 µM (active).

Question: What about the AC50 [21] of the same molecule?
Answer: The AC50 was 6.62 µM (active).

Question: And the AC50 [22]?
Answer: Its AC50 is 8.72 µM (active).
